ChEMBL document CHEMBL6120970, “Discovery and Functional Characterization of a Potent, Selective, and Metabolically Stable PROTAC of the Protein Kinases DYRK1A and DYRK1B” (J Med Chem, 2024)
≈ marks a conversion by molar mass, not a printed value. Calls of active or inactive are those of the source. The rule behind the calls is not given here.

Legend:
[1] = target: Protein cereblon/Dual specificity tyrosine-phosphorylation-regulated kinase 1B (Homo sapiens, UniProt Q96SW2+Q9Y463); assay: Competitive binding affinity to CRBN/DYRK1B (unknown origin) assessed as dissociation constant; format: protein assay
[2] = target: T1, Protein cereblon/Dual specificity tyrosine-phosphorylation-regulated kinase 1A (Homo sapiens, UniProt Q13627+Q96SW2); assay: PROTAC activity at CRBN/HibiT-tagged DYRK1A in Flp-In-T-REx-293 cells assessed as induction of degradation of DYRK1A by measuring maximum efficacy at 1 uM measured after 24 hrs by NanoBiT luciferase assay relative to control; format: cell-based
[3] = target: T1, Protein cereblon/Dual specificity tyrosine-phosphorylation-regulated kinase 1A; assay: PROTAC activity at CRBN/DYRK1A in HEK293 cells assessed as induction of degradation of DYRK1A incubated for 24 hrs; format: cell-based
[4] = target: T1, Protein cereblon/Dual specificity tyrosine-phosphorylation-regulated kinase 1A; assay: PROTAC activity at CRBN/DYRK1A in HEK293 cells assessed as induction of degradation of DYRK1A at 1 to 10000 nM incubated for 24 hrs in presence of 4-(3-(2-fluoro-4-(4-methylpiperazin-1-yl)phenyl)-2-methyl-3H-imidazo[4,5-b]pyridin-5-yl)pyridin-2-amine; format: cell-based; conditions: dose 1-10000 nM
[5] = target: T1, Protein cereblon/Dual specificity tyrosine-phosphorylation-regulated kinase 1A; assay: PROTAC activity at CRBN/DYRK1A in HEK293 cells assessed as induction of degradation of DYRK1A at 1 to 10000 nM incubated for 24 hrs in presence of leucettine-41; format: cell-based; conditions: dose 1-10000 nM
[6] = target: T1, Protein cereblon/Dual specificity tyrosine-phosphorylation-regulated kinase 1A; assay: PROTAC activity at CRBN/DYRK1A in HEK293 cells assessed as induction of degradation of DYRK1A at 1 to 10000 nM incubated for 24 hrs in presence of CaNDY; format: cell-based; conditions: dose 1-10000 nM
[7] = tested on: HEK293; assay: Effect on DCAF7 expression in HEK293 cells at 1 to 10000 nM; format: functional, cell-based; conditions: Homo sapiens, dose 1-10000 nM
[8] = target: T2, Protein cereblon/Dual specificity tyrosine-phosphorylation-regulated kinase 1B (Homo sapiens) (UniProt Q9Y463+Q96SW2); assay: PROTAC activity at CRBN/DYRK1B in HEK293 cells assessed as induction of degradation of DYRK1B at 100 nM measured within 8 hrs by Western blot analysis; format: cell-based
[9] = tested on: HEK293; assay: Downregulation of DYRK1B mRNA expression in HEK293 cells at 100 nM measured after 24 hrs by qRT-PCR analysis; format: functional, cell-based; conditions: Homo sapiens
[10] = target: T1, Protein cereblon/Dual specificity tyrosine-phosphorylation-regulated kinase 1A; assay: PROTAC activity at CRBN/DYRK1A in HEK293 cells assessed as induction of degradation of DYRK1A at 100 nM pretreated with lenalidomide followed by compound addition and incubated for 8 hrs; format: cell-based
[11] = target: T2, Protein cereblon/Dual specificity tyrosine-phosphorylation-regulated kinase 1B (Homo sapiens); assay: PROTAC activity at CRBN/DYRK1B in HEK293 cells assessed as induction of degradation of DYRK1B at 100 nM pretreated with lenalidomide followed by compound addition and incubated for 8 hrs; format: cell-based
[12] = target: T1, Protein cereblon/Dual specificity tyrosine-phosphorylation-regulated kinase 1A; assay: PROTAC activity at CRBN/DYRK1A in HEK293 cells assessed as induction of degradation of DYRK1A at 100 nM pretreated with MLN4924 followed by compound addition and incubated for 8 hrs; format: cell-based
[13] = target: T2, Protein cereblon/Dual specificity tyrosine-phosphorylation-regulated kinase 1B (Homo sapiens); assay: PROTAC activity at CRBN/DYRK1B in HEK293 cells assessed as induction of degradation of DYRK1B at 100 nM pretreated with MLN4924 followed by compound addition and incubated for 8 hrs; format: cell-based
[14] = target: T2, Protein cereblon/Dual specificity tyrosine-phosphorylation-regulated kinase 1B (Homo sapiens); assay: PROTAC activity at CRBN/DYRK1B in HEK293 cells assessed as induction of degradation of DYRK1B at 100 nM pretreated with CB-5083 followed by compound addition and incubated for 8 hrs; format: cell-based
[15] = target: T1, Protein cereblon/Dual specificity tyrosine-phosphorylation-regulated kinase 1A; assay: PROTAC activity at CRBN/DYRK1A in HEK293 cells assessed as induction of degradation of DYRK1A at 100 nM pretreated with bortezomib followed by compound addition and incubated for 8 hrs; format: cell-based
[16] = target: T1, Protein cereblon/Dual specificity tyrosine-phosphorylation-regulated kinase 1A; assay: PROTAC activity at CRBN/DYRK1A in Flp-In-T-REx-293 cells overexpressing GFP-DYRK1A assessed as half life at 1 uM measured upto 6 hrs by fluorescence based phase contrast microscopy analysis; format: cell-based
[17] = target: T2, Protein cereblon/Dual specificity tyrosine-phosphorylation-regulated kinase 1B (Homo sapiens); assay: PROTAC activity at CRBN/DYRK1B in Flp-In-T-REx-293 cells overexpressing GFP-DYRK1B assessed as maximal reduction in GFP fluorescence at 1 uM measured upto 6 hrs by fluorescence based phase contrast microscopy analysis relative to control; format: cell-based
[18] = target: T1, Protein cereblon/Dual specificity tyrosine-phosphorylation-regulated kinase 1A; assay: PROTAC activity at CRBN/DYRK1A in human SH-SY5Y cells assessed as induction of degradation of DYRK1A at 100 nM incubated for 8 hrs relative to control; format: cell-based
[19] = target: T1, Protein cereblon/Dual specificity tyrosine-phosphorylation-regulated kinase 1A; assay: PROTAC activity at CRBN/DYRK1A in human A549 cells assessed as induction of degradation of DYRK1A at 100 nM incubated for 8 hrs relative to control; format: cell-based
[20] = target: T1, Protein cereblon/Dual specificity tyrosine-phosphorylation-regulated kinase 1A; assay: PROTAC activity at CRBN/DYRK1A in human SH-SY5Y cells assessed as induction of degradation of DYRK1A at 100 nM incubated for 24 hrs; format: cell-based
[21] = target: T1, Protein cereblon/Dual specificity tyrosine-phosphorylation-regulated kinase 1A; assay: PROTAC activity at CRBN/DYRK1A in human A549 cells assessed as induction of degradation of DYRK1A at 100 nM incubated for 24 hrs; format: cell-based
[22] = target: T2, Protein cereblon/Dual specificity tyrosine-phosphorylation-regulated kinase 1B (Homo sapiens); assay: PROTAC activity at CRBN/DYRK1B in HEK293 cells assessed as induction of degradation of DYRK1B at 100 nM incubated for 24 hrs; format: cell-based
[23] = tested on: SH-SY5Y; assay: Cytotoxicity against human SH-SY5Y cells assessed as reduction in cell viability at 100 nM measured upto 96 hrs by real-time cell analysis; format: functional, cell-based
[24] = tested on: SH-SY5Y; assay: Cytotoxicity against human SH-SY5Y cells assessed as reduction in cell viability at 100 nM measured upto 96 hrs in presence of cisplatin by real-time cell analysis; format: functional, cell-based
[25] = Solubility of the compound in FaSSIF buffer; format: physicochemical
[26] = Half life in mouse plasma; format: ADME, cell-free
[27] = Metabolic stability in rat liver microsomes assessed as intrinsic clearance; format: ADME, Microsome; conditions: read-out: CLH
[28] = Permeability of the compound in human Caco-2 cells across apical to basolateral side; format: ADME, cell-based; conditions: read-out: permeability
[29] = Permeability of the compound in human Caco-2 cells across basolateral side to apical side; format: ADME, cell-based; conditions: read-out: permeability
[30] = target: T1, Protein cereblon/Dual specificity tyrosine-phosphorylation-regulated kinase 1A; assay: Competitive binding affinity to CRBN/DYRK1A (unknown origin) assessed as association rate constant Kon; format: protein assay
[31] = target: T1, Protein cereblon/Dual specificity tyrosine-phosphorylation-regulated kinase 1A; assay: Competitive binding affinity to CRBN/DYRK1A (unknown origin) assessed as dissociation rate constant Koff; format: protein assay
[32] = Clearance in mouse at 1 mg/kg, iv administered as single dose; format: ADME, organism-based; conditions: in vivo
[33] = Cmax in mouse at 10 mg/kg, ip administered as single dose; format: ADME, organism-based; conditions: in vivo
[34] = MRT in mouse at 10 mg/kg, ip administered as single dose; format: ADME, organism-based; conditions: in vivo
[35] = Bioavailability in mouse at 10 mg/kg, ip administered as single dose; format: ADME, organism-based; conditions: in vivo
[36] = Tmax in mouse at 10 mg/kg, po administered as single dose; format: ADME, organism-based; conditions: in vivo
[37] = Cmax in mouse at 10 mg/kg, po administered as single dose; format: ADME, organism-based; conditions: in vivo
[38] = Oral availability in mouse at 10 mg/kg administered as single dose; format: ADME, organism-based; conditions: in vivo

`Cc1nc2ccc(-c3ccnc(N)c3)nc2n1-c1ccc(N2CCN(CC#Cc3ccc(N4CCC(C(=O)N5CCC(n6cc(CNc7cccc8c7C(=O)N(C7CCC(=O)NC7=O)C8=O)cn6)CC5)CC4)nc3)CC2)c(F)c1` (stereo not drawn) gave a Kd [1] of 16 nM, an Emax [2] of 84% and a DC50 [3] of 12.3 nM. For the same compound, the Activity [4] was “inactive”, the Activity [5] was “inactive” and the Activity [6] was “inactive”. The Activity [7] was “inactive”, the Activity [8] was “Active” and the Activity [9] was “inactive”. The Activity [10] was “inactive”, the Activity [11] was “inactive” and the Activity [12] was “inactive”. For the same compound, the Activity [13] was “inactive”, the Activity [14] was “inactive” and the Activity [15] was “inactive”. It also gave a T1/2 [16] of 0.95 h, an Emax [17] of 86% and an Activity [18] of 100%. The Activity [19] was 100%, the Activity [20] was “Active” and the Activity [21] was “Active”. The Activity [22] was “Active”, the Activity [23] was “Active” and the Activity [24] was “Active; Compound Showed Moderate Toxicity”. It also gave a solubility [25] of 0.16 µM (≈ 0.17 µg/mL), a half-life [26] of 6.97 h and a CLint scaled [27] of 14 mL/min/kg. The Papp A→B [28] was < 0.27 ×10⁻⁶ cm/s, the Papp B→A [29] was < 0.243 ×10⁻⁶ cm/s and the K [30] was 1.83 10^5/M/s. For the same compound, the K [31] was 7.25 10^-4/s, the clearance [32] was 7.1 mL/min/kg and the Cmax [33] was 8130 ng/mL. It also gave an MRT [34] of 5.77 h, a bioavailability [35] of 109% and a Tmax [36] of 0.5 h. It also gave a Cmax [37] of 18.5 ng/mL and a bioavailability [38] of 0.25%.
